IC50 data for 6 compounds are collected here from patent publication US20250205259A1, “CLASS OF 7-((FIVE-MEMBERED HETEROCYCLIC)METHYL)-8-CARBOXYLIC ACID-BENZO CYCLIC BORATE DERIVATIVES AND USES THEREOF” (priority 2022, published 2025).

pIC50: −log10 of the molar value. Read-outs that look alike come from different tables or passages of the source.

What all share (format): biochemical
For one assay, the target named is VIM-2 (Escherichia coli, UniProt Q5U7L7). Nature of the assay: Inhibitory activity on MBL, fluorescent substrate FC-5. The following applies: read-out: Inhibitory activity on MBL VIM-2 (IC50 class).
In a further assay the target is IMP-1 (Serratia marcescens, UniProt P52699). Described as above.
Sequence of IMP-1 (P52699 19-246 limits assumed): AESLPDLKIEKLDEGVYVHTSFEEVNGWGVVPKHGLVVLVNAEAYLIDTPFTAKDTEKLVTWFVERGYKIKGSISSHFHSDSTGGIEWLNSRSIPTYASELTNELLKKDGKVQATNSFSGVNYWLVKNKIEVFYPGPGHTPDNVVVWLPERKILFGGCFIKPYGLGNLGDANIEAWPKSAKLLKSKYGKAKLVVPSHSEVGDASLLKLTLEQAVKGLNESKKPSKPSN
The target in the next assay is NDM-5 (Klebsiella pneumoniae, UniProt C7C422, M154L/V88L). Described as above.
Sequence of NDM-5 (C7C422 29-270 V88L/M154L): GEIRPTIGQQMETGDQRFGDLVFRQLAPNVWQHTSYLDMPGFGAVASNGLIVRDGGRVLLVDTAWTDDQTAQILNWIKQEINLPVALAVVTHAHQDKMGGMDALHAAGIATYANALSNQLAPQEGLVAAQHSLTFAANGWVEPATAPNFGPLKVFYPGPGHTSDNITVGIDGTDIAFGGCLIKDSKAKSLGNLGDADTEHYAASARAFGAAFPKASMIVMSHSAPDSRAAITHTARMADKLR
For another assay, the target named is CTX-M-14 (Escherichia coli, UniProt Q9L5C7). Nature of the assay: Inhibitory activity on SBL, fluorescent substrate FC-5. As to conditions: read-out: Inhibitory activity on SBL CTX-M-14 (IC50 class).
Sequence of CTX-M-14 (Q9L5C7 entry or part of it): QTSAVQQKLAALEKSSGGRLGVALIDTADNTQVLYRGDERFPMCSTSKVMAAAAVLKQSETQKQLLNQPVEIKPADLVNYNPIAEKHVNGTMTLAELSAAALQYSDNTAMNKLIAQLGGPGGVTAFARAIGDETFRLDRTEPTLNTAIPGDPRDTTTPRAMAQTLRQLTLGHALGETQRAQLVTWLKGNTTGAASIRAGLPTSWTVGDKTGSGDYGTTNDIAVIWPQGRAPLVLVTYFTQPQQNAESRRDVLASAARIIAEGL
Another assay has as its target T1, SHV-12 (UniProt P0AD64, L31Q/G234S/E235K, species not given).
T1 sequence (P0AD64 1-286 L31Q/G234S/E235K): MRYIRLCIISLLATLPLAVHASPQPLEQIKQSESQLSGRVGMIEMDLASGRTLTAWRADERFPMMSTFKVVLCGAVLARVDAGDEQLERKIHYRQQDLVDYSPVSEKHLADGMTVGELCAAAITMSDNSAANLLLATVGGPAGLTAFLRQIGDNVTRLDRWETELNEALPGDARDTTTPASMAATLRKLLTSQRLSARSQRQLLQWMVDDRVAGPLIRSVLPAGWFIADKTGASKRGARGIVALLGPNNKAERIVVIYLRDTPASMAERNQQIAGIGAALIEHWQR
Described as above. As to conditions: read-out: Inhibitory activity on SBL SHV-12 (IC50 class).

The target in another assay is VIM-1 (Pseudomonas aeruginosa, UniProt A0A0F7KYQ8). Nature of the assay: Inhibitory activity on MBL, fluorescent substrate FC-5.
The next assay has as its target NDM-1 (Klebsiella pneumoniae, UniProt C7C422). The assay is described as above.
In another assay the target is TEM-1 (Escherichia coli, UniProt P62593). Description: Inhibitory activity on SBL, fluorescent substrate FC-5. As to conditions: read-out: Inhibitory activity on SBL TEM-1 (IC50 class).
Sequence of TEM-1 (P62593 24-286 limits assumed): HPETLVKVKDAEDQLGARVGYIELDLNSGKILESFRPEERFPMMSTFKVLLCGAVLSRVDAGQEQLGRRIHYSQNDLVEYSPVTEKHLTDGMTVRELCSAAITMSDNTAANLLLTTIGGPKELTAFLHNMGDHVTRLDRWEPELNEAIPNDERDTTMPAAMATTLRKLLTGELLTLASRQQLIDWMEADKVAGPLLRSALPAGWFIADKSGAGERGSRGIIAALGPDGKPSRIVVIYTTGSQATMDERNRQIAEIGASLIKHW
The target in another assay is OXA-48 (Klebsiella pneumoniae, UniProt Q6XEC0). The description is as above. As to conditions: read-out: Inhibitory activity on SBL OXA-48 (IC50 class).
Sequence of OXA-48 (Q6XEC0 23-265 limits assumed): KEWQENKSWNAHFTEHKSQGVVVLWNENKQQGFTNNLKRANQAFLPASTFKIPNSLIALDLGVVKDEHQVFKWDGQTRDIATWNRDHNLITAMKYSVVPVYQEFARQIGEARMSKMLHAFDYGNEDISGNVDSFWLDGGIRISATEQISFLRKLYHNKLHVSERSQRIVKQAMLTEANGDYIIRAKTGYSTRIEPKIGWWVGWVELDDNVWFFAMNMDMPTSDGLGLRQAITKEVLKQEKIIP
In another assay the target is KPC-2 (Klebsiella pneumoniae, UniProt Q9F663). The assay is described as above. As to conditions: read-out: Inhibitory activity on SBL KPC-2 (IC50 class).
Sequence of KPC-2 (Q9F663 25-293 limits assumed): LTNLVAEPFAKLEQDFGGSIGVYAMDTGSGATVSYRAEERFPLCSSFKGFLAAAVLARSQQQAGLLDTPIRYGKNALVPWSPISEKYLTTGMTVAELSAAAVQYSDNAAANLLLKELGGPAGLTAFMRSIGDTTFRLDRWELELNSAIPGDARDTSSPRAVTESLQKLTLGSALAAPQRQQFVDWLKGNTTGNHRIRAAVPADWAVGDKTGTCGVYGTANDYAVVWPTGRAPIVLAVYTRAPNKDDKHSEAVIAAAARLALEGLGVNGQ
Setting [1] is: read-out: Inhibitory activity on MBL IMP-1 (IC50 class).
The mark [2] stands for this setting: read-out: Inhibitory activity on MBL NDM-5 (IC50 class).
The mark [3] stands for this setting: read-out: Inhibitory activity on MBL VIM-1 (IC50 class).
Where [4] appears, read: read-out: Inhibitory activity on MBL NDM-1 (IC50 class).
[5] abbreviates: read-out: inhibitory activity at a nanomolar-level on NDM-5.
[6] abbreviates: VIM-1 and/or VIM-2, read-out: inhibitory activity at a nanomolar-level on VIM-1 and/or VIM-2.
Where [7] appears, read: read-out: inhibitory activity at a nanomolar-level on NDM-1.

Sequence of NDM-1 (C7C422 29-270 limits assumed): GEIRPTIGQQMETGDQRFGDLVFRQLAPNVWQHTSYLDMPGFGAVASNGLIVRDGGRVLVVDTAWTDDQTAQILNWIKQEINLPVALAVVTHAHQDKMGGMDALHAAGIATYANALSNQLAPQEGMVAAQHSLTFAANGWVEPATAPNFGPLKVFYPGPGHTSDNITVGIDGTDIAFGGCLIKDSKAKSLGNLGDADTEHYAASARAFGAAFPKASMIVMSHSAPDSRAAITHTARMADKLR

Regarding `NC(=O)[C@@H]1CC[C@@H]2CN1C(=O)N2OS(=O)(=O)O` [Avibactam, reference compound], the pIC50 is below 4.00 at VIM-2; below 4.00 on IMP-1 (setting [1]); below 4.00 on NDM-5 (setting [2]); above 8.00 on CTX-M-14; above 8.00 at SHV-12; below 4.00 on VIM-1 (setting [3]). For the same compound, the pIC50 at NDM-1 (setting [4]) was below 4.00.
Regarding `O=C(O)c1c(Cn2nccn2)ccc2c1OB(O)CC2` [Compound 1], the pIC50 on TEM-1 is 6.00 to 8.00; at VIM-2 it was 6.00 to 8.00; at IMP-1 (setting [1]) it was 4.00 to 6.00; on OXA-48, above 8.00; at NDM-5 (setting [2]), 6.00 to 8.00; at NDM-5 (setting [5]), above 6.00. Further, the pIC50 at KPC-2 was above 8.00; at CTX-M-14, 6.00 to 8.00; on SHV-12, 6.00 to 8.00; on VIM-1 (setting [6]), above 6.00; on VIM-1 (setting [3]) it was 4.00 to 6.00; at NDM-1 (setting [4]) it was 6.00 to 8.00. The pIC50 at NDM-1 (setting [7]) was above 6.00.
`O=C(O)c1c(Cn2ccnn2)ccc2c1OB(O)CC2` [Compound 2]: the pIC50 on TEM-1 was 6.00 to 8.00; on VIM-2, 6.00 to 8.00; on IMP-1 (setting [1]), 4.00 to 6.00; on OXA-48 it was 6.00 to 8.00; on NDM-5 (setting [2]) it was 6.00 to 8.00; at NDM-5 (setting [5]), above 6.00. The pIC50 on KPC-2 was above 8.00; on CTX-M-14, 6.00 to 8.00; at SHV-12 it was 6.00 to 8.00; on VIM-1 (setting [6]) it was above 6.00; on VIM-1 (setting [3]) it was 4.00 to 6.00; at NDM-1 (setting [4]) it was 6.00 to 8.00. Moreover, the pIC50 at NDM-1 (setting [7]) is above 6.00.
Take `C[n+]1ccn(Cc2ccc3c(c2C(=O)O)OB(O)CC3)n1` [Compound 3]: the pIC50 was 6.00 to 8.00 at TEM-1; 6.00 to 8.00 at VIM-2; 4.00 to 6.00 on IMP-1 (setting [1]); 6.00 to 8.00 on OXA-48; 6.00 to 8.00 at NDM-5 (setting [2]); above 6.00 on NDM-5 (setting [5]). For the same compound, the pIC50 at KPC-2 was above 8.00; on CTX-M-14, 6.00 to 8.00; at SHV-12, 6.00 to 8.00; at VIM-1 (setting [6]), above 6.00; on VIM-1 (setting [3]), 4.00 to 6.00; at NDM-1 (setting [4]), 6.00 to 8.00. For the same compound, on NDM-1 (setting [7]), the pIC50 is above 6.00.
As for `CCCc1cn(Cc2ccc3c(c2C(=O)O)OB(O)CC3)nn1` [Compound 4], the pIC50 on TEM-1 is 6.00 to 8.00; on VIM-2, 4.00 to 6.00; on IMP-1 (IMP-1 and/or IMP-4, read-out: inhibitory activity at a nanomolar-level on IMP-1 and/or IMP-4), above 6.00; on IMP-1 (setting [1]) it was 6.00 to 8.00; on OXA-48 it was 6.00 to 8.00; at NDM-5 (setting [2]), 6.00 to 8.00. Besides, the pIC50 at NDM-5 (setting [5]) is above 6.00; on KPC-2 it was above 8.00; at CTX-M-14 it was 6.00 to 8.00; on SHV-12 it was 6.00 to 8.00; on VIM-1 (setting [3]), 4.00 to 6.00; at NDM-1 (setting [4]), 6.00 to 8.00. Moreover, the pIC50 at NDM-1 (setting [7]) is above 6.00.
As for `O=C(O)c1c(Cn2cc(CN3CCCC3)nn2)ccc2c1OB(O)CC2` [Compound 5], the pIC50 at TEM-1 was 6.00 to 8.00; at VIM-2 it was 6.00 to 8.00; on IMP-1 (setting [1]), 4.00 to 6.00; on OXA-48 it was 6.00 to 8.00; at NDM-5 (setting [2]) it was 6.00 to 8.00; at KPC-2, above 8.00. For the same compound, the pIC50 is 6.00 to 8.00 on CTX-M-14; 6.00 to 8.00 at SHV-12; above 6.00 on VIM-1 (setting [6]); 4.00 to 6.00 at VIM-1 (setting [3]); 4.00 to 6.00 at NDM-1 (setting [4]).
